Legend:
Type in all cases: in vivo, mouse
[1] = system: cDC1s; assay: Flow cytometry of DC numbers and maturation after vaccination; details: IV route; comparable to SNP-IV
Protocol: For the mononuclear phagocyte uptake analysis, cells were assessed for viability with the LIVE/DEAD Fixable Blue Dead Cell Stain Kit for 10 min at room temperature. After FcR blocking, cells were stained for 20 minutes at room temperature with the following surface antibodies: NK1.1 (clone PK136), CD19 (clone 1D3), CD3 (clone 145-2C11), Ly6G (clone 1A8), CD45 (clone 30-F11), Siglec-H (clone 440c), CD86 (clone GL1), CD11c (clone L3), CD80 (clone 16-10A1), B220 (clone RA3-6B2), CD64 (clone X54-5/7.1), CD11b (clone MI/70) and Ly6C (clone AL-21) purchased from BD Biosciences, CCR7 (clone 4B12), MHC class II (I-A/I-E, clone M5/114.15.2), CD169 (clone 3D6.112) and XCR1 (clone ZET) purchased from BioLegend, and CD172a (clone P84) from Thermo Fisher Scientific. The stain was washed off and cells were then fixed in 0.5% PFA in PBS until they were acquired on an LSRFortessa X50 (BD Biosciences) using the FACSDiva software v8.0.1 (BD Biosciences).
Given the systemic distribution of vaccine after SNP-IV but not SNP-SC, the levels of pro-inflammatory cytokines in the sera of mice were assessed at 6 hours after vaccination (FIG. 3F). High levels of systemic IFNα and IL-12 were measured by ELISAs after SNP-IV, especially at the higher dose of 32 nmol that is used in the therapeutic studies, compared to SNP-SC (FIG. 3F). […]

[2] = system: neoAg-specific CD8+ T cells; assay: Flow cytometry of tetramer+ CD8+ T cells after SNP vaccination; details: IV administration after SNP-SC prime, still with anti-tumor efficacy
Protocol: For T cell tetramer analysis, cells were assessed for viability with LIVE/DEAD Fixable Blue Dead Cell Stain Kit (Invitrogen) in PBS containing 50 nM dasatinib (STEMCELL Technologies) for 30 min at room temperature. Samples were then washed and blocked with anti-CD16/CD32 (BD Biosciences). Cells were then stained with fluorescently conjugated tetramer in cell staining buffer (PBS and 2% FCS) containing 50 nM dasatinib to enhance staining. Cells were simultaneously stained with the following surface antibodies to: CD8 (clone 53-6.7), PD-1 (clone 29F.A12), Tim-3 (clone RMT3-23), CD44 (clone IM7), CD39 (clone Duha59), and NKG2A (clone 16A11) purchased from BioLegend and CD4 (clone RM4-4) purchased from BD Biosciences. After a 1-h incubation at 4° C., cells were washed twice in cell staining buffer, fixed and permeabilized using the FoxP3 transcription factor staining buffer set (eBioscience). […]
To assess whether there are differences in the magnitude of neoAg-specific CD8^+ T cells after SNP-SC or SNP-IV boost, whole blood was sampled on day 21, a week after the boost and measured the tetramer^+ population by flow cytometry (FIG. 1G). […]
As markers of exhaustion and antigen experience on CD8^+ T cells are important for improving the therapeutic effects of immune checkpoint blockade, the expression of PD-1, TIM-3 and NKG2A post vaccination were assessed. […]

[3] = system: MC38 tumors; assay: Therapeutic MC38 tumor model, SNP-7/8a prime day 7 and boost day 14 together with anti-PD-L1; details: SNP-SC (Reps1) prime, IV boost 7 days later without tumor antigen
Protocol: For each tumor implantation, a frozen cell aliquot was thawed and cultured in MC38 media at 37° C. and 5% CO2, passaged once and collected using trypsin EDTA (Gibco). Then, […] in sterile PBS per mouse were implanted subcutaneously on the right flank. Tumors were measured twice a week using digital calipers. Tumor volume was estimated using the formula: (tumor volume=short×short×long/2). Animals were killed when tumors surpassed 1,000 mm^3.
Mice were implanted with MC38 tumors on the subcutaneous flank and were treated on day 7 (prime) and day 14 (boost) with SNP-7/8a containing Reps1, an MC38 neoAg, together with anti-PD-L1 (FIG. 1A). […] To confirm and extend these findings in a different tumor model, mice were implanted with TC-1 tumors and treated with SNP-7/8a containing HPV E6 antigen.
To assess the requirement for antigen at the time of boost, mice were primed with SNP-SC containing Reps1, followed by SNP-IV containing an irrelevant antigen (FIG. 1E).

## polyIC:LC
[1]
  DC maturation in the spleen and tumor-draining LN: able to induce DC maturation
[2]
  CD8+ T cell responses compared to the other vaccinated groups: ten-fold lower
[3]
  Tumor growth: significantly mediate tumor regression and prolong survival

Source: patent publication US20260091097A1, “COMBINATION TREATMENT REGIMES FOR TREATING CANCER” (Barinthus Biotherapeutics North America, Inc., priority 2022, published 2026)
